Data on 12 molecules can be found in US20180162844A1, “CYCLOPROPANE DERIVATIVE AND DRUG CONTAINING SAME” (EA PHARMA CO., LTD., priority 2015, published 2018).

For this test, the target named is T1, human TRPA1 (Homo sapiens, UniProt O75762).
T1 construct: full-length human TRPA1 gene was amplified; expressed in transfected cells; host or cells: Human embryonic kidney-derived 293T cells, transient transfection with pcDNA3.1/zeo(+) human TRPA1 expression plasmid
As to the kind of experiment: Measurement of TRPA1 antagonist activity (intracellular calcium increase, allylisothiocyanate stimulation, 293T cells transfected with human TRPA1 expression plasmid). The note with it: Examples (Table 8-1); 293T cells expressing human TRPA1, allylisothiocyanate stimulation, FLIPR Calcium4, test substance added 10 min before AITC; read-out: hTRPA1 IC50. It counts as cell-based. On the procedure: Experimental Example 1: Measurement of TRPA1 antagonist Activity
Human TRPA1 Expression Plasmid
Using cDNA encoding human TRPA1 (GenBank accession No. NM_007332) (manufactured by Kazusa DNA Research Institute, item No.: FHC07217) as a template, primer 1 (SEQ ID NO: 1) and primer 2 (SEQ ID NO: 2), PCR by PfuUltra High-Fidelity DNA Polymerase (Stratagene) was performed, and full-length human TRPA1 gene was amplified.
A recognition site (underlined) of restriction enzyme HindIII was added to the 5′ end of human TRPA1 gene, and XbaI site (underlined) was added to the 3′ end of human TRPA1 gene, and GTT of the template sequence was changed to termination codon TAG (bold). The obtained double stranded DNA was enzyme-digested with HindIII and XbaI, and introduced into a multicloning site of expression plasmid pcDNA3.1/zeo(+) (manufactured by Invitrogen) to give a human TRPA1 expression plasmid.
Human embryonic kidney-derived 293T cells were cultured in Dulbecco's Modified Eagle Medium containing 10% fetal bovine serum, 10 unit penicillin, and 10 μg streptomycin. One day before assay, 3×10^6 of 293T cells were plated on a petri dish having a diameter of 10 cm, and cultured in a CO2 incubator for 24 hr. OPTI-MEM I Reduced Serum Media (Invitrogen). (600 μL), Mirus TransIT-293 (Mirus Bio) (18 μL), and human TRPA1 expression plasmid (6 μg) were mixed, the total amount of the mixture was added to the cells on the petri dish to allow for gene transfer. The cells were recovered about for 8 hr later, plated on a poly-D-lysine coated 384 well black/clear bottom plate at 12,000 cells/well, and cultured overnight.
Measurement of Intracellular Calcium Increase
The medium was removed from the 384 well plate, calcium indicator (Molecular Device, trade name: FLIPR Calcium4 Assay Kit) dissolved in HBSS (Thermo Fisher Scientific) (pH 7.2) containing 20 mM HEPES was added (38 μL/well), and the cells were stained in a CO2 incubator for 1 hr. The 384 well plate was stood at room temperature for not less than 15 min, set on FDSS7000 (Hamamatsu Photonics K.K.), and a test substance solution was added at 10 μL/well. After 10 min, allylisothiocyanate solution (12 μL/well) was added, the relative fluorescence intensity was measured for 5 min after addition of the allylisothiocyanate solution.
Preparation of Test Substance Solution and Allylisothiocyanate Solution
A test substance solution was prepared to have a composition of HBSS (Thermo Fisher Scientific) (pH 7.2) containing 0.48% dimethyl sulfoxide, a test substance at 4.8-fold concentration of the evaluation concentration, 0.1% bovine serum albumin and 20 mM HEPES. An allylisothiocyanate solution was prepared to have a composition of HBSS (Thermo Fisher Scientific) (pH 7.2) containing 0.1% dimethyl sulfoxide, 100 μM allylisothiocyanate, 0.1% bovine serum albumin and 20 mM HEPES.
Calculation of Antagonist Activity
The activity rate of a test substance at each concentration was calculated, wherein the relative fluorescence intensity change of a well free of a test substance and containing allylisothiocyanate is 100% activity rate, and the relative fluorescence intensity change of a well free of a test substance and allylisothiocyanate is 0% activity rate. The inhibitory rate of a test substance at each concentration was calculated by subtracting the activity rate of the test substance from 100% activity rate, and the concentration of a test substance showing 50% inhibitory rate was calculated as IC50 from the sigmoid approximate curve by XLFit (idbs).

T1 sequence (O75762 whole entry): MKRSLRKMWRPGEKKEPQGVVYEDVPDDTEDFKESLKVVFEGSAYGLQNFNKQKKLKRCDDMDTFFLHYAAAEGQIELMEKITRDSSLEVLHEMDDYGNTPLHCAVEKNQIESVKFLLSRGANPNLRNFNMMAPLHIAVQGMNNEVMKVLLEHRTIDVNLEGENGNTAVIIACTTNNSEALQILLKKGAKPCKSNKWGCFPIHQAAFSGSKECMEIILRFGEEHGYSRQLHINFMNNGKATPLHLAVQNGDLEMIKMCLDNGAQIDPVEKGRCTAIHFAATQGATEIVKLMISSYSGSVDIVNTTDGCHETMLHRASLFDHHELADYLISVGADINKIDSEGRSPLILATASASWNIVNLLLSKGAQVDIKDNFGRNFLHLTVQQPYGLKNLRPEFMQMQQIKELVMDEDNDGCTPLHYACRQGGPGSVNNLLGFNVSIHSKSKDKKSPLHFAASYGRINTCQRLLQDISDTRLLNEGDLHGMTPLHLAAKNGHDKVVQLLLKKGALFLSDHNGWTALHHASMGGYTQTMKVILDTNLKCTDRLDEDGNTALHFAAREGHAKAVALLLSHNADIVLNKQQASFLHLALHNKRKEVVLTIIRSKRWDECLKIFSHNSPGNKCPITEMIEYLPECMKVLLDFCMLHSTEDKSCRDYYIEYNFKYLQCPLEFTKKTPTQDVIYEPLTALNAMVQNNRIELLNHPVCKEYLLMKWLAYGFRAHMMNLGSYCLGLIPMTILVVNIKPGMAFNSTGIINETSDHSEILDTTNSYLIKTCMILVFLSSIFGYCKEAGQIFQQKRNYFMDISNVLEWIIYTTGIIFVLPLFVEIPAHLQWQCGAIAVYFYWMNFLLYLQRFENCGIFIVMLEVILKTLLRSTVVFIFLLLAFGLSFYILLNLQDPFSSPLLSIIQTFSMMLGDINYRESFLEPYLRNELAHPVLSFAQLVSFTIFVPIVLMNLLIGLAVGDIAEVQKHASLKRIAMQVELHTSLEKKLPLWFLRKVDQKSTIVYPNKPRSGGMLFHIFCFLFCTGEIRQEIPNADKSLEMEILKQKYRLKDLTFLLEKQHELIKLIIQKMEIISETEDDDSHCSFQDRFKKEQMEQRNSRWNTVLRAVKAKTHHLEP

For the molecule `O=C(NCc1ccc(O)c(-c2ccc(C(F)(F)F)cn2)c1)C1(NS(=O)(=O)c2cc3cc(F)ccc3o2)CC1` [Example 18, 1-[(5-fluorobenzofuran-2-yl)sulfonylamino]-N-[[4-hydroxy-3-[5-(trifluoromethyl)-2-pyridyl]phenyl]methyl]-cyclopropanecarboxamide], the IC50 was 25 nM.

Consider `CN(C)c1nc(CNC(=O)C2(NS(=O)(=O)c3cc4cc(F)ccc4o3)CC2)cc(-c2ccc(C(F)(F)F)cc2)n1` [Example 19], for which the half-maximal inhibitory concentration (IC50) is 38 nM.

As to `O=C(NCc1cc(-c2ccc(C(F)(F)F)cc2O)ncn1)C1(NS(=O)(=O)c2cc3cc(F)ccc3o2)CC1` [Example 20, 1-[(5-fluorobenzofuran-2-yl)sulfonylamino]-N-[[6-[2-hydroxy-4-(trifluoromethyl)-phenyl]pyrimidin-4-yl]methyl]cyclopropanecarboxamide], the half-inhibitory concentration (IC50) was found to be 23 nM.

Consider `O=C(NCc1cc(-c2ccc(C(F)(F)F)cc2)ncn1)C1(NS(=O)(=O)c2cc3ccccc3o2)CC1` [Example 21, 1-(benzofuran-2-ylsulfonylamino)-N-[[6-[4-(trifluoromethyl)phenyl]pyrimidin-4-yl]methyl]cyclopropanecarboxamide], for which the IC50 was 77 nM.

Take `O=C(NCc1cc(-c2ccc(C(F)(F)F)cn2)ccn1)C1(NS(=O)(=O)c2cc3ccccc3o2)CC1` [Example 22, 1-(benzofuran-2-ylsulfonylamino)-N-[[4-[5-(trifluoromethyl)-2-pyridyl]-2-pyridyl]methyl]-cyclopropanecarboxamide]: the IC50 came to 130 nM.

With `CN(C)c1nc(CNC(=O)C2(NS(=O)(=O)c3cc4ccccc4o3)CC2)cc(-c2ccc(C(F)(F)F)cc2)n1` [Example 23, 1-(benzofuran-2-ylsulfonylamino)-N-[[2-(dimethylamino)-6-[4-(trifluoromethyl)phenyl]pyrimidin-4-yl]methyl]cyclopropanecarboxamide], the IC50 is 100 nM.

For the molecule `CC(C)N(C1(C(=O)NCc2cc(-c3ccc(C(F)(F)F)nc3)ncn2)CC1)S(=O)(=O)c1cc2cc(F)ccc2o1` [Example 24, 1-[(5-fluorobenzofuran-2-yl)sulfonyl-isopropyl-amino]-N-[[6-[6-(trifluoromethyl)-3-pyridyl]pyrimidin-4-yl]methyl]cyclopropanecarboxamide], the IC50 is 3.3 nM.

As for `CC(C)N(C1(C(=O)NCc2cc(-c3ccc(C(F)(F)F)nc3)ncn2)CC1)S(=O)(=O)c1cc2ccccc2o1` [Example 25, 1-[benzofuran-2-ylsulfonyl(isopropyl)amino]-N-[[6-[6-(trifluoromethyl)-3-pyridyl]pyrimidin-4-yl]methyl]cyclopropanecarboxamide], the IC50 is 8.1 nM.

Consider `O=C(NCc1cc(-c2ccc(C(F)(F)F)cc2)ncn1)C1(NS(=O)(=O)c2cc3cnccc3o2)CC1` [Example 26, 1-(furo[3,2-c]pyridin-2-ylsulfonylamino)-N-[[6-[4-(trifluoromethyl)phenyl]pyrimidin-4-yl]methyl]cyclopropanecarboxamide], for which the half-inhibitory concentration (IC50) came out at 45 nM.

`O=C(NCc1cc(-c2ccc(C(F)(F)F)cc2)nc(N2CCCC2)c1)C1(NS(=O)(=O)c2cc3cc(F)ccc3o2)CC1` [Example 27, 1-[(5-fluorobenzofuran-2-yl)sulfonylamino]-N-[[2-pyrrolidin-1-yl-6-[4-(trifluoromethyl)phenyl]-4-pyridyl]methyl]-cyclopropanecarboxamide]: the half-inhibitory concentration (IC50) turned out to be 86 nM.

For the molecule `O=C(NCc1cc(-c2ccc(C(F)(F)F)cc2)nc(N2CCCC2)c1)C1(NS(=O)(=O)c2cc3ccccc3o2)CC1` [Example 28, 1-(benzofuran-2-ylsulfonylamino)-N-[[2-pyrrolidin-1-yl-6-[4-(trifluoromethyl)phenyl]-4-pyridyl]methyl]-cyclopropanecarboxamide], the IC50 was determined as 260 nM.

For `CN(C1(C(=O)NCc2cc(-c3ccc(C(F)(F)F)cn3)ccn2)CC1)S(=O)(=O)c1cc2cc(F)ccc2o1` [Example 29, 1-[(5-fluorobenzofuran-2-yl)sulfonyl-methyl-amino]-N-[[4-[5-(trifluoromethyl)-2-pyridyl]-2-pyridyl]methyl]-cyclopropanecarboxamide], the IC50 was 1.2 nM.
